Structures are written as SMILES. Activity calls are given as the source filed them. The calls are words filed in the database; no cut-off is given here.

In data set [1] the test system is Nucleic Acid.
Description: Association constant for binding to poly [d(G-C)]
In another data set the test system is Calf thymus DNA. The note with it: Bos taurus.
Data set [2] deals with Nucleic Acid. The source holds these as a separate data set.
Description: Association constant for binding to poly [d(A-T)]

Description for Calf thymus DNA: Inhibitory concentration against ethidium binding to DNA
Description for Mus musculus: Maximum percent increase in life span of mice
Description for physchem: Ionisation constant (pKa)

In the case of `COc1ccc(Nc2c3ccccc3nc3ccccc23)cc1`, the Log K was determined as 6.08 in the data set on Nucleic Acid [1] and 6.12 in the data set on Nucleic Acid [2]. For the same compound, the C50 with Calf thymus DNA amounted to 7.4 µM. In addition, the pKa in “physchem” is 7.94. Moreover, the ILS result in the data set filed under Mus musculus was “inactive”.
For `CCOc1ccccc1Nc1c2ccccc2nc2ccccc12` the same measures were 5.08, 5.2, 85 µM, 7.85 and “inactive”.
As to `Clc1ccccc1Nc1c2ccccc2nc2ccccc12`, the results for the Log K in the data set on Nucleic Acid [1] and with Nucleic Acid [2] were 5.47 and 5.39, respectively. In the data set with Calf thymus DNA, this compound displayed a C50 of 41 µM. The compound also came in with a pKa in the data set “physchem” of 6.55. In addition, the ILS result in the data set listed under Mus musculus was “inactive”.
In the same order, the values of `COC(=O)Nc1ccccc1Nc1c2ccccc2nc2ccccc12` are 5.78, 5.56, 17 µM, 7.24 and “inactive”.
For `O=[N+]([O-])c1cccc(Nc2c3ccccc3nc3ccccc23)c1`, the Log K with Nucleic Acid [1] turned out to be 5.62; with Nucleic Acid [2] it was 5.56. In the data set with Calf thymus DNA, the C50 worked out at 27 µM. This compound displayed a pKa in “physchem” of 6.26. In addition, the ILS result in the data set listed under Mus musculus is “inactive”.
Turning to `CS(=O)(=O)c1ccc(Nc2c3ccccc3nc3ccccc23)cc1`, the results for the Log K in the data set with Nucleic Acid [1] and in the data set on Nucleic Acid [2] were 5.88 and 5.86, respectively. Further, the C50 in the data set on Calf thymus DNA is 14 µM. The compound also returned a pKa in “physchem” of 5.81. Besides, the ILS entry in the data set listed under Mus musculus is “inactive”.
For `Ic1ccccc1Nc1c2ccccc2nc2ccccc12` the same measures were 5.27, 5.33, 126 µM, 6.47 and “inactive”.
For `CN(c1ccccc1Nc1c2ccccc2nc2ccccc12)S(C)(=O)=O` the same measures were 5.46, 5.08, 37 µM, 6.97 and “inactive”.
Turning to `NS(=O)(=O)c1ccc(Nc2c3ccccc3nc3ccccc23)cc1`, the Log K in the data set on Nucleic Acid [1] turned out to be 5.92; in the data set on Nucleic Acid [2] it was 5.96. Further, the C50 in the data set with Calf thymus DNA was determined as 14 µM. In addition, the ILS entry in the data set filed under Mus musculus was “inactive”.
Turning to `Cc1cccc(Nc2c3ccccc3nc3ccccc23)c1`, the Log K with Nucleic Acid [1] was found to be 5.9; in the data set with Nucleic Acid [2] it was 6.09. The C50 with Calf thymus DNA was determined as 15 µM. Moreover, in “physchem”, the pKa is 7.52. For the same compound, the ILS entry in the data set filed under Mus musculus was “inactive”.
`NS(=O)(=O)c1ccccc1Nc1c2ccccc2nc2ccccc12`: the Log K stood at 5.77 with Nucleic Acid [1] and 5.67 in the data set with Nucleic Acid [2]. The compound also displayed a C50 in the data set with Calf thymus DNA of 18 µM. The ILS entry in the data set filed under Mus musculus was “inactive”.
On to `CCCCNc1ccc(Nc2c3ccccc3nc3ccccc23)cc1`, for which the Log K stood at 6.39 with Nucleic Acid [1] and 6.45 in the data set with Nucleic Acid [2]. In addition, the C50 in the data set on Calf thymus DNA worked out at 1.6 µM. This compound also displayed a pKa in the data set “physchem” of 8.24. Further, in the data set listed under Mus musculus, the ILS result was “inactive”.
In the same order, the values of `Fc1ccc(Nc2c3ccccc3nc3ccccc23)cc1` are 5.85, 5.9, 16 µM, 7.5 and “inactive”.
For `CC(=O)c1ccc(Nc2c3ccccc3nc3ccccc23)cc1` the same measures were 5.89, 5.87, 14 µM, 6.12 and “inactive”.
In the case of `NC(=O)c1ccc(Nc2c3ccccc3nc3ccccc23)cc1`, the results for the Log K in the data set on Nucleic Acid [1] and in the data set on Nucleic Acid [2] were 5.77 and 5.83, respectively. In the data set with Calf thymus DNA, this compound displayed a C50 of 18 µM. For the same compound, the ILS entry in the data set listed under Mus musculus was “inactive”.
In the case of `CCc1ccccc1Nc1c2ccccc2nc2ccccc12`, the Log K in the data set with Nucleic Acid [1] was determined as 5.15; in the data set on Nucleic Acid [2], 5.18. Besides, the C50 in the data set on Calf thymus DNA amounted to 83 µM. The compound further gave a pKa in the data set “physchem” of 7.68. Moreover, the ILS result in the data set filed under Mus musculus is “inactive”.
On to `CCCCCCNc1ccc(Nc2c3ccccc3nc3ccccc23)cc1`, for which the Log K in the data set on Nucleic Acid [1] came to 6.38; in the data set on Nucleic Acid [2], 6.43. The same compound showed a C50 in the data set on Calf thymus DNA of 1.6 µM. The compound also showed a pKa in “physchem” of 8.24. For the same compound, in the data set listed under Mus musculus, the ILS result is “inactive”.
In the same order, the values of `Clc1ccc(Nc2c3ccccc3nc3ccccc23)cc1` are 5.91, 5.99, 14 µM, 7.06 and “inactive”.
In the same order, the values of `COC(=O)c1ccccc1Nc1c2ccccc2nc2ccccc12` are 5.41, 5.47, 40 µM, 6.3 and “inactive”.
For `Brc1ccc(Nc2c3ccccc3nc3ccccc23)cc1` the same measures were 5.98, 6.02, 11 µM, 7 and “inactive”.
With `Brc1ccccc1Nc1c2ccccc2nc2ccccc12`, the Log K in the data set on Nucleic Acid [1] was found to be 5.32; in the data set with Nucleic Acid [2], 5.35. In addition, the C50 in the data set with Calf thymus DNA is 58 µM. Moreover, the pKa in “physchem” came to 6.41. Also, the ILS result in the data set listed under Mus musculus was “inactive”.
For `Ic1ccc(Nc2c3ccccc3nc3ccccc23)cc1` the same measures were 6.13, 6.19, 8.2 µM, 6.9 and “inactive”.
In the same order, the values of `CCCNc1ccc(Nc2c3ccccc3nc3ccccc23)cc1` are 6.28, 6.35, 2 µM, 8.25 and “inactive”.
In the case of `CNS(=O)(=O)c1ccc(Nc2c3ccccc3nc3ccccc23)cc1`, the Log K in the data set on Nucleic Acid [1] came out at 5.85; with Nucleic Acid [2] it was 5.82. In the data set with Calf thymus DNA, this compound came in with a C50 of 16 µM. In the data set “physchem”, this compound displayed a pKa of 6.02. Further, the ILS result in the data set filed under Mus musculus is “inactive”.
Regarding `COc1cccc(Nc2c3ccccc3nc3ccccc23)c1`, the Log K in the data set with Nucleic Acid [1] amounted to 5.91; with Nucleic Acid [2], 5.86. Further, in the data set with Calf thymus DNA, the C50 worked out at 14 µM. The same compound showed a pKa in “physchem” of 7.21. The ILS entry in the data set filed under Mus musculus was “inactive”.
With `CC(=O)Nc1ccccc1Nc1c2ccccc2nc2ccccc12`, the Log K with Nucleic Acid [1] came to 5.46; in the data set with Nucleic Acid [2] it was 5.84. This compound also gave a C50 in the data set with Calf thymus DNA of 42 µM. Further, the pKa in “physchem” worked out at 7.24. In addition, in the data set filed under Mus musculus, the ILS result was “inactive”.
For `CC(C)c1ccccc1Nc1c2ccccc2nc2ccccc12`, the Log K with Nucleic Acid [1] amounted to 4.92; in the data set on Nucleic Acid [2], 5.08. In the data set on Calf thymus DNA, this compound came in with a C50 of 142 µM. In “physchem”, this compound returned a pKa of 7.64. In addition, the ILS entry in the data set listed under Mus musculus is “inactive”.
For `Oc1ccccc1Nc1c2ccccc2nc2ccccc12` the same measures were 5.42, 5.36, 39 µM, 7.8 and “inactive”.
For `Clc1cccc(Nc2c3ccccc3nc3ccccc23)c1` the same measures were 6.02, 6.02, 11 µM, 6.76 and “inactive”.
For `Fc1ccccc1Nc1c2ccccc2nc2ccccc12` the same measures were 5.65, 5.59, 27 µM, 6.84 and “inactive”.
Take `c1ccc(Nc2c3ccccc3nc3ccccc23)cc1`: the Log K in the data set with Nucleic Acid [1] was found to be 5.85; with Nucleic Acid [2], 5.86. In the data set with Calf thymus DNA, the C50 is 16 µM. Besides, the pKa in “physchem” was 7.46. Moreover, in the data set filed under Mus musculus, the ILS entry was “inactive”.
Take `NC(=O)c1ccccc1Nc1c2ccccc2nc2ccccc12`: the Log K in the data set on Nucleic Acid [1] was 5.43; in the data set with Nucleic Acid [2], 5.37. Moreover, the C50 with Calf thymus DNA came to 38 µM. Besides, the ILS result in the data set listed under Mus musculus is “inactive”.
Regarding `Nc1ccccc1Nc1c2ccccc2nc2ccccc12`, the Log K in the data set on Nucleic Acid [1] and in the data set on Nucleic Acid [2] was 5.76 each time. The compound also gave a C50 in the data set with Calf thymus DNA of 13 µM. This compound returned a pKa in the data set “physchem” of 7.87. Moreover, the ILS result in the data set listed under Mus musculus was “inactive”.
Regarding `CS(=O)(=O)Nc1ccccc1Nc1c2ccccc2nc2ccccc12`, the values for the Log K in the data set with Nucleic Acid [1] and in the data set on Nucleic Acid [2] were 6.1 and 5.49, respectively. In the data set on Calf thymus DNA, this compound showed a C50 of 7.3 µM. In addition, in the data set “physchem”, the pKa came to 6.86. The ILS entry in the data set filed under Mus musculus was “inactive”.
For `N#Cc1ccc(Nc2c3ccccc3nc3ccccc23)cc1` the same measures were 5.86, 5.7, 15 µM, 5.93 and “inactive”.
For `CNc1cccc(Nc2c3ccccc3nc3ccccc23)c1` the same measures were 6.01, 6.11, 7 µM, 7.61 and “inactive”.
Take `O=[N+]([O-])c1ccc(Nc2c3ccccc3nc3ccccc23)cc1`: the results for the Log K with Nucleic Acid [1] and in the data set with Nucleic Acid [2] were 5.69 and 5.48, respectively. The compound also came in with a C50 in the data set on Calf thymus DNA of 19 µM. The ILS result in the data set listed under Mus musculus was “inactive”.
As for `c1ccc(Nc2c3ccccc3nc3ccccc23)nc1`, the figures for the Log K with Nucleic Acid [1] and in the data set on Nucleic Acid [2] were 5.43 and 5.6, respectively. Also, in the data set on Calf thymus DNA, the C50 stood at 42 µM. Besides, in the data set “physchem”, the pKa stood at 6.32. Further, in the data set listed under Mus musculus, the ILS result is “inactive”.
On to `CC(C)(C)c1ccccc1Nc1c2ccccc2nc2ccccc12`, for which the figures for the Log K in the data set on Nucleic Acid [1] and in the data set with Nucleic Acid [2] were 5.09 and 5.23, respectively. The C50 in the data set with Calf thymus DNA came out at 100 µM. In “physchem”, this compound returned a pKa of 7.62. Moreover, in the data set filed under Mus musculus, the ILS entry was “inactive”.
In the same order, the values of `CS(=O)(=O)NCc1ccccc1Nc1c2ccccc2nc2ccccc12` are 5.39, 5.6, 46 µM, 7.17 and “inactive”.
On to `c1cncc(Nc2c3ccccc3nc3ccccc23)c1`, for which the Log K with Nucleic Acid [1] amounted to 5.96; with Nucleic Acid [2], 5.75. In addition, the C50 with Calf thymus DNA was found to be 13 µM. The compound also registered a pKa in “physchem” of 6.46. The ILS result in the data set listed under Mus musculus was “inactive”.

One may read the pKa as the negative logarithm of the acid dissociation constant.

These data come from ChEMBL document CHEMBL1121781, “Potential antitumor agents. 34. Quantitative relationships between DNA binding and molecular structure for 9-anilinoacridines substituted in the anilino ring” (J Med Chem, 1981).
